Source: patent publication US20110160252A1, “PHARMACEUTICAL COMPOSITIONS FOR TREATMENT OR PREVENTION OF HBV INFECTION” (priority 2008, published 2011)
Where two headings read alike, the source gives them in different places.

Experiments:
[1] = system: HBV (genotype C_AT; wild-type strain); assay: Virus titer in chimeric mice having human liver infected with genotype C_AT HBV (Example 4); format: in vivo, Hepatitis B virus; settings: second week, formula (III) 5 mg/kg iv daily, PEG-IFN 30 μg/kg sc, ETV 0.02 mg/kg oral daily (FIG. 4)
From the text: (§1) Next, serum HBV was purified by the same method as described in Example 1, and HBV was quantified by measuring HBV-DNA using real-time PCR method. The sequences of primers HBSF2: 5′-CTTCATCCTGCTGCTATGCCT-3′[nt 406-426] (SEQ ID NO: 4) and HBSR2: 5′-AAAGCCCAGGATGATGGGAT-3′[nt 646-627] (SEQ ID NO: 5), and the sequence of TaqMan probe HBSP2 (nt 461-488) (5′-ATGTTGCCCGTTTGTCCTCTAATTCCA-3′ (SEQ ID NO: 6)) were the same as those described in the reference (Abe A, Inoue K, Tanaka T, Kato J, Kajiyama N, Kawaguchi R, Tanaka S, et al. Quantitation of hepatitis B virus genomic DNA by real-time detection PCR. J Clin Microbiol (1999) 37: 2899-2903).
(§2) The same test as described in Example 3 was carried out using chimeric mice (purchased from PhoenixBio Co., Ltd.) having human liver infected with HBV (genotype C_AT; wild-type strain). The compound represented by formula (III) was administered at 5 mg/kg (intravenous injection every day), while PEG-IFN was administered at 30 μg/kg (subcutaneous injection). Entecavir (ETV) was administered at 0.02 mg/kg (oral administration every day).

[2] = system: genotype C HBV (L180M+S202G+M204V; ETV-resistant strain); assay: Virus titer in chimeric mice having human liver infected with ETV-resistant genotype C HBV (Example 5); format: in vivo, Hepatitis B virus; settings: formula (III) 5 mg/kg iv daily, PEG-IFN 30 μg/kg sc, ETV 0.02 mg/kg oral daily (FIG. 5)
From the text: as §1
as §2, with “with genotype C” for “with”, “(L180M+S202G+M204V; ETV-resistant” for “(genotype C_AT; wild-type”

[3] = system: HBV (genotype C_AT; wild-type strain); assay: Anti-HBV effect on HBV-infected Huh-7 cells, HBV-DNA in supernatant by real-time PCR (wild-type strain); format: cell-based; settings: Hepatitis B virus
Protocol: The present inventors assessed the anti-HBV effect of the compound represented by formula (III) on Huh-7 cells infected with HBV (genotype C_AT; wild-type strain).
(§3) On the day before HBV infection, about 100,000 Huh-7 cells were plated in 12-well plates (FALCON, 353043) using culture medium DMEM (SIGMA, D6429).
On the day of infection, 50 μl of a homogenous mixture of 0.5 μg of HBV-DNA (described in “Sugiyama M, et al. HEPATOLOGY, Vol. 44: 915-924, 2006”), 1.5 μl of FUGENE6 (Roche Diagnostics; 11 814 443 001), 5 μl of SEAP, and 43 μl of OPTIMEM (Invitrogen; 31985) was added to the Huh-7 cells in each well. Then, the compound represented by formula (III) was added at a final concentration of 0, 3, 10, or 30 μM.
The cells were cultured at 37° C. under 5% CO2 for three days, and then culture supernatant was collected from each well. The supernatant was treated with deoxyribonuclease (DNase) to remove free DNA. […]
(§4) HBV was quantified by measuring HBV-DNA using real-time PCR (Device used: Applied Biosystems, 4318157). […]
(§5) (SEQ ID NO: 2); and HBVSP2 has the sequence of: FAM-[…]-TAMRA (SEQ ID NO: 3)). […] HBV-DNA copy numbers were determined from the obtained fluorescent signals.

[4] = system: HBV strain C, M204V (YVDD) (Lamivudine-resistant strain); assay: HBV propagation suppression in Huh-7 cells, strain C (Lamivudine-resistant); format: cell-based; settings: Hepatitis B virus, Huh-7, read-out: 50% propagation suppression
Protocol: (§6) FIG. 1B is a graph showing the effect of an agent on Huh-7 cells infected with various HBV strains. • A: highly Lamivudine-resistant strain, 50% propagation suppression=3.4 μM; • B: Entecavir-resistant strain, 50% propagation suppression=3.7 μM; • C: Lamivudine-resistant strain, 50% propagation suppression=3.6 μM; • Wild: wild-type strain, 50% propagation suppression=3.2
as §3
(§7) On the day of infection, 50 μl of a homogenous mixture of 0.5 μg of HBV-DNA (described in “Sugiyama M, et al. HEPATOLOGY, Vol. 44: 915-924, 2006”), 1.5 μl of FUGENE6 (Roche Diagnostics; 11 814 443 001), 5 μl of SEAP, and 43 μl of OPTIMEM (Invitrogen; 31985) was added to the Huh-7 cells in each well. […]
as §4, §5
(§8) Furthermore, the effect of suppressing HBV propagation was assessed by the same method using Lamivudine- and Entecavir-resistant strains (A, L180M+M204V; B, L180M+M204V+T184L; C, M204V (YVDD)) as well as wild-type HBV strain (Wild).

[5] = system: HBV strain B, L180M+M204V+T184L (Entecavir-resistant strain); assay: HBV propagation suppression in Huh-7 cells, strain B (Entecavir-resistant); format: cell-based; settings: Hepatitis B virus, Huh-7, read-out: 50% propagation suppression
Protocol: as §6, §3, §7, §4, §5, §8

[6] = system: HBV strain A, L180M+M204V (highly Lamivudine-resistant strain); assay: HBV propagation suppression in Huh-7 cells, strain A (highly Lamivudine-resistant); format: cell-based; settings: Hepatitis B virus, Huh-7, read-out: 50% propagation suppression
Protocol: as §6, §3, §7, §4, §5, §8

| Structure (SMILES) | mean decrease of virus titer [1] | viral decrease [2] | IC50 ([3]; 72 h, Huh-7 cells, genotype C_AT wild-type HBV, three days culture, HBV-DNA in supernatant (FIG. 1A), read-out: 50%-inhibition concentration (IC50)) | IC50 ([3]; Huh-7, read-out: 50% propagation suppression) | IC50 [4] | IC50 [5] | IC50 [6] |
| --- | --- | --- | --- | --- | --- | --- | --- |
| C=C1[C@H](CO)[C@@H](O)C[C@@H]1n1cnc2c(=O)[nH]c(N)nc21 [ETV, Entecavir] | 1.4 Log | 0.3 Log | – | – | – | – | – |
| CC#CCOc1ccc(C[C@H](NC(=O)[C@@H](/C=C/CCCCCCC(=O)CCCCCCC)[C@@](O)(CC(=O)O)C(=O)O)C(=O)O)cc1 [compound represented by formula (III)] | – | – | ~3 µM | 3.2 µM | 3.6 µM | 3.7 µM | 3.4 µM |
